In US7968548B2, “Melanocortin receptor-specific piperazine compounds with diamine groups” (Palatin Technologies, Inc., priority 2005, dated 2011):

Tests used:
MC5-R = molecular target: T1, MC5-R (Homo sapiens, UniProt P33032); assay: Competitive inhibition binding assay using [I125]-NDP-α-MSH, HEK-293 membranes, recombinant hMC5-R; settings: for inhibition at 1 µM: 1 μM compound
T1 construct: expressed in transfected cells; host or cells: HEK-293
Experimental: (§1) A competitive inhibition binding assay was performed using membrane homogenates prepared from HEK-293 cells that express recombinant hMC4-R, hMC3-R, or hMC5-R, and from B-16 mouse melanoma cells (containing endogenous MC1-R). In some instances, HEK-293 cells that express recombinant hMC1-R were employed. In the examples that follow, all MC3-R, MC4-R and MC5-R values are for human recombinant receptors. MC1-R values are for B-16 mouse melanoma cells, unless the heading is “hMC1-R”, in which case the value is for human recombinant MC1-R. Assays were performed in 96 well GF/B Millipore multiscreen filtration plates (MAFB NOB10) pre-coated with 0.5% bovine serum albumin (Fraction V). […] After incubation for 60 minutes at 37° C., the assay mixture was filtered and the membranes washed three times with ice-cold buffer. Filters were dried and counted in a gamma counter for bound radioactivity. […] Maximal specific binding (100%) was defined as the difference in radioactivity (cpm) bound to cell membranes in the absence and presence of 1 μM NDP-α-MSH. […] Each assay was conducted in triplicate and the actual mean values are described, with results less than 0% reported as 0%. Ki values for test compounds were determined using Graph-Pad Prism® curve-fitting software.

MC3-R = molecular target: T2, MC3-R (Homo sapiens, UniProt P41968); assay: Competitive inhibition binding assay using [I125]-NDP-α-MSH, HEK-293 membranes, recombinant hMC3-R; settings: for inhibition at 1 µM: 1 μM compound
T2 construct: expressed in transfected cells; host or cells: HEK-293
T2 sequence (P41968 whole entry): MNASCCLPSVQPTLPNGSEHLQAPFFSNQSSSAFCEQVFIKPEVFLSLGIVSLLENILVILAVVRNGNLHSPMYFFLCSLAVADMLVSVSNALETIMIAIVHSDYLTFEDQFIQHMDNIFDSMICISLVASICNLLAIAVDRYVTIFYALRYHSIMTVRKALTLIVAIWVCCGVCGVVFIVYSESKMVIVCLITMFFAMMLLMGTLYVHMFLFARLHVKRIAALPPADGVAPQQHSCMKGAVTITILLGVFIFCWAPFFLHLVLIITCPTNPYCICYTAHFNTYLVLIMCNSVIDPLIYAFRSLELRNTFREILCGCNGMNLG
Experimental: as §1

MC4-R [1] = molecular target: T3, MC4-R (Homo sapiens, UniProt P32245); assay: Assay for agonist activity: cAMP accumulation in HEK-293 cells that express MC4-R; type: cell-based; design: expressed in transfected cells; host or cells: HEK-293; settings: HEK293; cell line that expresses MC4-R; relative to NDP-α-MSH; read-out: maximum effect observed, % of the maximum achieved with NDP-α-MSH (cAMP)
T3 sequence (P32245 whole entry): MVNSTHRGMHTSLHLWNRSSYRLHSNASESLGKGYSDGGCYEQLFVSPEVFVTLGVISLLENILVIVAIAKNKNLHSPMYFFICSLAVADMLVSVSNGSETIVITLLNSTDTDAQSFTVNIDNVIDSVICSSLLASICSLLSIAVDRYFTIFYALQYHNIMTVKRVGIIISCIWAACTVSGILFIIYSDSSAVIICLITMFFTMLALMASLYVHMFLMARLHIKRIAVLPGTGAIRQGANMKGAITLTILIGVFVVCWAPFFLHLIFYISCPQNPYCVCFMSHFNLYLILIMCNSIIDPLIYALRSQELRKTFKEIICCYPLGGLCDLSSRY
Experimental: Assay for agonist activity. Accumulation of intracellular cAMP was examined as a measure of the ability of the test compounds to elicit a functional response in HEK-293 cells that express MC4-R. Confluent HEK-293 cells that express recombinant hMC4-R were detached from culture plates by incubation in enzyme-free cell dissociation buffer. Dispersed cells were suspended in Earle's Balanced Salt Solution containing 10 mM HEPES (pH 7.5), 1 mM MgCl2, 1 mM glutamine, 0.5% albumin and 0.3 mM 3-isobutyl-1-methyl-xanthine (IBMX), a phosphodiesterase inhibitor. The cells were plated in 96-well plates at a density of 0.5×10^5 cells per well and pre-incubated for 30 minutes. Cells were exposed for 1 hour at 37° C. to test compounds dissolved in DMSO (final DMSO concentration of 1%) at a concentration range of 0.05-5000 nM in a total assay volume of 200 μL. NDP-α-MSH was used as the reference agonist. At the end of the incubation period, cells were disrupted by the addition of 50 μL of lysis buffer (cAMP EIA kit, Amersham) followed by vigorous pipetting. Levels of cAMP in the lysates were determined using a cAMP EIA kit (Amersham). Data analysis was performed by nonlinear regression analysis with Graph-Pad Prism® software. The maximum efficacies of the test compounds were compared to that achieved by the reference melanocortin agonist NDP-αMSH.

MC4-R [2] = molecular target: T3, MC4-R; assay: Competitive inhibition binding assay using [I125]-NDP-α-MSH, HEK-293 membranes, recombinant hMC4-R; design: expressed in transfected cells; host or cells: HEK-293; settings: for inhibition at 1 µM: 1 μM compound
Experimental: as §1

MC1-R = molecular target: T4, MC1-R (Mus musculus, UniProt Q01727); assay: Competitive inhibition binding assay using [I125]-NDP-α-MSH, B-16 mouse melanoma cell membranes; settings: B-16 mouse melanoma cells; for inhibition at 1 µM: 1 μM compound
T4 construct: from B-16 mouse melanoma cells (containing endogenous MC1-R); endogenous in cells; host or cells: B-16 mouse melanoma cells (membrane homogenates)
T4 sequence (Q01727 whole entry): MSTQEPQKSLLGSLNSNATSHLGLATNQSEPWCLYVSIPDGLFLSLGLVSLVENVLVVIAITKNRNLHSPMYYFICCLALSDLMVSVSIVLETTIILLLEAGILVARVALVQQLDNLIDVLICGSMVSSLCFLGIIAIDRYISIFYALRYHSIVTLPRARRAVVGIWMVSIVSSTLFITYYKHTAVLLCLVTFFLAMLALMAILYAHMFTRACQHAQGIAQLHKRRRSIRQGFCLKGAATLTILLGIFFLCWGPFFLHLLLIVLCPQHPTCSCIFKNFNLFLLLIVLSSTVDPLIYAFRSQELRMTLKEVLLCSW
Experimental: as §1

[3] = Mouse model IN feeding studies (body weight); type: in vivo; settings: 20 hours
Experimental: (§2) Food intake and body weight after IN and IP dosing. Changes in food intake and body weight were evaluated for selected compounds. Male C57BL/6 mice were obtained from Jackson labs (Bar Harbor, Me.). Animals were individually housed in conventional plexiglass hanging cages and maintained on a controlled 12 hour on/off light cycle. Water and pelleted (Harlan Teklad 2018 18% Protein Rodent Diet) food was provided ad libitum. The mice were dosed IP (by intraperitoneal injection) after a 24 hour fast or IN (by intranasal administration) with vehicle or selected compounds (0.1-3 mg/kg, and in some cases up to 10 mg/kg). All animals were dosed once a day (or up to four consecutive days) at the start of the “lights off” period. The changes in food intake for the 4 hour and 20 hour period after dosing relative to control animals administered vehicle were determined. Body weights were determine 4 hours prior to dosing and 20 hours after dosing, and the change in body weight relative to control animals administered vehicle were determined.

MC4-R [4] = molecular target: T3, MC4-R; assay: Competitive binding assay using [I125]-AgRP (83-132); design: expressed in transfected cells; settings: hMC4-R membranes
Experimental: Competitive binding assay using [I^125]—AgRP (83-132). Competitive binding studies using [I^125]—AgRP (83-132) were carried out using membrane homogenates isolated from cells that express hMC4-R. The assays were performed in 96-well GF/B Millipore multiscreen filtration plates (MAFB NOB10) pre-coated with 0.5% bovine serum albumin (Fraction V). The assay mixture contained 25 mM HEPES buffer (pH 7.5) with 100 mM NaCl, 2 mM CaCl2, 2 mM MgCl2, 0.3 mM 1,10-phenanthroline, 0.5% bovine serum albumin, membrane homogenates, radioligand [I^125]—AgRP (83-132) (Perkin Elmer) and increasing concentrations of compounds in a total volume of 200 μL. Binding was measured at radioligand concentrations of 0.2 nM. After incubating for 1 hour at 37° C., the reaction mixture was filtered and washed with assay buffer containing 500 mM NaCl. The dried discs were punched out from the plate and counted on a gamma counter. […] Ki values for test compounds were determined using Graph-Pad Prism® curve-fitting software.

[5] = Mouse model IP feeding studies in fasted animals (food intake); type: in vivo; settings: 3 mg/kg, 20 hours
Experimental: as §2

hMC1-R = molecular target: T5, hMC1-R (Homo sapiens, UniProt Q01726); assay: Competitive inhibition binding assay using [I125]-NDP-α-MSH, HEK-293 membranes, recombinant hMC1-R; settings: human recombinant MC1-R
T5 construct: expressed in transfected cells; host or cells: HEK-293
T5 sequence (Q01726 whole entry): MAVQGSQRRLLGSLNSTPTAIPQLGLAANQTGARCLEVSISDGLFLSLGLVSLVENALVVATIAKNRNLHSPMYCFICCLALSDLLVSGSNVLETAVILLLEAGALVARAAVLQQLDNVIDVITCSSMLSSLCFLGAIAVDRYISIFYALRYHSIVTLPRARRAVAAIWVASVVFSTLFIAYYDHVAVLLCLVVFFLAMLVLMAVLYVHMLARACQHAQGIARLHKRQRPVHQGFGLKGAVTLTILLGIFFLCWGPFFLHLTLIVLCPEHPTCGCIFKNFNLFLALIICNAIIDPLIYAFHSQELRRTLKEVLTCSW
Experimental: as §1

T1 sequence (P33032 whole entry): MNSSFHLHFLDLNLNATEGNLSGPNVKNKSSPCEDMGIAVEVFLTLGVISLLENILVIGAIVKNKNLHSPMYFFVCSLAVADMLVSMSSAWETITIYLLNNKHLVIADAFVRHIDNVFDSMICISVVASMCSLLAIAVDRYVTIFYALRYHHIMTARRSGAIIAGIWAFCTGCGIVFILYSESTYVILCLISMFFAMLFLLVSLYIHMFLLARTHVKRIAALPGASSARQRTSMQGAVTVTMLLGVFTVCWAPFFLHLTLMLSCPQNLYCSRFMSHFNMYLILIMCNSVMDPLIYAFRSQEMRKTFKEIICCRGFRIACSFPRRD

Compound | Ki (MC5-R) [nM] | inhibition at 1 µM (MC5-R) [%] | Ki (MC3-R) [nM] | inhibition at 1 µM (MC3-R) [%] | Emax (MC4-R [1]) [%] | Ki (MC4-R [2]) [nM] | inhibition at 1 µM (MC4-R [2]) [%] | inhibition at 1 µM (MC1-R) [%] | Ki (MC1-R) [nM] | Ki (MC4-R [4]) [nM] | average decrease in body weight compared to control animals ([3]; 0.1 mg/kg) [%] | average decrease in body weight compared to control animals ([3]; 0.3 mg/kg) [%] | average decrease in body weight compared to control animals ([3]; 1 mg/kg) [%] | average decrease in food intake compared to control animals [5] [%] | Ki (hMC1-R) [nM]
CC(C)C[C@@H]1CN(C(=O)[C@H](N)Cc2ccc(Cl)cc2Cl)[C@@H](CCCCNCCN)CN1C(=O)Cc1ccc2ccccc2c1 [Example 1, (R)-2-Amino-1-[(2S,5R)-2-[4-(2-amino-ethylamino)-butyl]-5-isobutyl-4-(2-naphthalen-2-yl-acetyl)-piperazin-1-yl]-3-(2,4-dichloro-phenyl)-propan-1-one] | 301 | 68 | 250 | 71 | 61 | 18 | 98 | 55 | 102 |  |  |  |  |  | 
CC(C)C[C@@H]1CN(C[C@H](N)Cc2ccc(Cl)cc2Cl)[C@@H](CCCNCCN)CN1C(=O)Cc1ccc2ccccc2c1 [Example 18, 1-{(2R,5S)-4-[(R)-2-Amino-3-(2,4-dichloro-phenyl)-propyl]-5-[3-(2-amino-ethylamino)-propyl]-2-isobutyl-piperazin-1-yl}-2-naphthalen-2-yl-ethanone] | 188 |  | 297 |  |  | 106 |  |  |  |  | 3 | 3.5 | 6.2 | 30 | 359
Cc1ccc(C[C@@H](N)CN2C[C@@H](C)N(C(=O)Cc3ccc4ccccc4c3)C[C@@H]2CCCN2CCNCC2)c(C)c1 [Example 4] |  | 97 |  | 43 |  |  | 55 | 12 |  |  |  |  |  |  | 

Second part, led by results:

Ki (MC5-R) [nM] | inhibition at 1 µM (MC5-R) [%] | Ki (MC3-R) [nM] | inhibition at 1 µM (MC3-R) [%] | Emax (MC4-R [1]) [%] | Ki (MC4-R [2]) [nM] | inhibition at 1 µM (MC4-R [2]) [%] | inhibition at 1 µM (MC1-R) [%] | Ki (MC1-R) [nM] | Ki (MC4-R [4]) [nM] | Compound | average decrease in body weight compared to control animals ([3]; 0.1 mg/kg) [%] | average decrease in body weight compared to control animals ([3]; 0.3 mg/kg) [%] | average decrease in body weight compared to control animals ([3]; 1 mg/kg) [%] | average decrease in food intake compared to control animals [5] [%] | Ki (hMC1-R) [nM]
143 |  | 190 |  | 16 | 23 |  |  | 558 | 72 | CC(C)C[C@@H]1CN(C[C@H](N)Cc2ccc(Cl)cc2Cl)[C@@H](CCCCNCCN)CN1C(=O)Cc1ccc2ccccc2c1 [Example 2, 1-{(2R,5S)-4-[(R)-2-Amino-3-(2,4-dichloro-phenyl)-propyl]-5-[4-(2-amino-ethylamino)-butyl]-2-isobutyl-piperazin-1-yl}-2-naphthalen-2-yl-ethanone] | 2.5 | 3 | 4.7 | 28 | 
 | 54 |  | 15 |  |  | 47 | 28 |  |  | Cc1ccc(C[C@H](CN2C[C@@H](C)N(C(=O)Cc3ccc4ccccc4c3)C[C@@H]2CCCN2CCN(C)CC2)N(C)C)c(C)c1 [Example 10, 1-{(2R,5S)-4-[(R)-2-Dimethylamino-3-(2,4-dimethyl-phenyl)-propyl]-2-methyl-5-[3-(4-methyl-piperazin-1-yl)-propyl]-piperazin-1-yl}-2-naphthalen-2-I-ethanone] |  |  |  |  | 
